{"source": "patent US12070445B2", "about": "“System and assay for monitoring production/release of membrane-lytic toxins in bacteria and compounds for modulating same” (priority 2021, dated 2024)", "system": "WT S. aureus (RN6390b)", "experiment": "Microtiter plate (96-well) vesicle lysis assay with WT S. aureus", "format": "cell-based", "details": "100 nM 1, 10 μM 5, 20 μM 6, 10 μM AIP", "description": "Compound handling and preparation. OdDHL and BHL (Hodgkinson et al., 2011), S. aureus AIP and peptide derivatives 1-5 (Tal-Gan et al., 2013, Tal-Gan et al., 2016, Vasquez and Blackwell, 2019), and compounds 7-9 (Welsh and Blackwell, 2016a, Boursier et al., 2018, Manson et al., 2020) were synthesized using previously described methods. PQS and compound 6 were purchased from Millipore Sigma and AK Scientific respectively. Compounds were stored dry at −20° C. until needed and then dissolved in DMSO. DMSO stock solutions were prepared at concentrations that varied with compound potency and apparent solubility. Final in-well compound concentrations for 96-well vesicle lysis assays, unless noted otherwise, were: 10 μM for AIP, OdDHL, and PQS; 1 mM for BHL; 100 nM for 1-4; 10 μM for 5; 20 μM for 6; 100 μM for 7 and 8; and 200 μM for 9.\nProduction of phospholipid vesicles with encapsulated calcein. Large unilamellar vesicles (LUVs) were produced by adapting a freeze-thaw and vesicle extrusion procedure (Mayer et al., 1986). Briefly, stock solutions of phospholipids (DOPC, DPPC, DPPE, or cholesterol) in chloroform were mixed to the desired lipid compositions (70 mol % DOPC/30 mol % cholesterol for S. aureus vesicles or 68 mol % DPPC, 30 mol % cholesterol, 2 mol % DPPE for P. aeruginosa vesicles), and the chloroform was removed using an N2 stream or rotary evaporation followed by drying for at least one hour under vacuum. Self-quenching solutions of calcein were prepared by combining calcein and PBS or a specially prepared calcein buffer (1 mM EDTA, 10 mM Trisbase, and 100 mM NaCl; pH 8) to a calcein concentration of […]. The resulting solutions were titrated with 10 M aqueous NaOH until all calcein was dissolved and the solution reached pH 7.4 or pH 8 for PBS and the calcein buffer, respectively. The resulting calcein solutions were added to the dried phospholipid films (PBS for S. aureus formulations and the calcein buffer for the P. aeruginosa formulations) for a final lipid concentration of 5 mg/mL. The resulting lipid solutions were vortexed vigorously and briefly sonicated in a bath sonicator to form a turbid vesicle suspension. The vesicle suspensions were then freeze-thawed five times by alternately immersing them into an iPrOH/dry ice bath and a warm water bath (˜60° C.). Vesicles prepared for continuous time-course experiments were passed at least 5 times through a 100 nm polycarbonate filter using a Mini-prep extruder. Vesicles prepared for the high-throughput screen were passed through the filter 3 times. The resulting vesicles were then separated from external, unloaded calcein using a hand-packed Sephadex-G50 size exclusion chromatography column. The concentration of phospholipid in the solution was quantified using ^31P NMR (per the above protocol), and the phospholipid concentration was adjusted to 2 mM for unsaturated lipid solutions and 1 mM for saturated lipid solutions in their respective buffers. The resulting vesicles were characterized by dynamic light scattering and found to have a hydrodynamic diameter of ˜150 nm (FIGS. 3A-3C), which agrees with previous reports describing vesicle production using a similar method (Lapinski et al., 2007).\nMicrotiter plate vesicle lysis assays. Portions of media (2 or 10 mL) were inoculated with individual bacterial colonies and allowed to shake overnight. From these overnight cultures, subcultures were prepared by diluting the cultures 1:50 (v/v) in fresh BHI for S. aureus or 1:100 (v/v) in fresh LB for P. aeruginosa. An aliquot of each subculture (178 μL) was added to 20 μL of vesicle suspension and 2 μL of compound solution (dissolved in DMSO at 100× working concentration) in a clear-bottomed, black 96-well microtiter plate (Corning 3904). For controls, DMSO (vehicle) or Triton X-100 (1% final concentration) was substituted for compound. […]", "note": "Entries after “also recorded” stand apart in the source; their conditions may differ.", "data": [{"smiles": "CC(C)c1ccc(S(=O)(=O)c2nnn3c2nc(O)c2ccccc23)cc1", "note": "[Compound 6, savirin]", "values": [{"measurement": "effect on vesicle lysis (calcein fluorescence over 12 hr)", "value": "wholly abrogated vesicle lysis; also recorded: repress vesicle lysis"}]}]}
